Active and inactive are the calls of the source. No rule for the calls is given here.

The values that follow come from PubChem BioAssay AID588327 (The Scripps Research Institute Molecular Screening Center, 2011).

The assay has as its target Sphingosine 1-phosphate receptor 3 (Homo sapiens) (UniProt Q99500). Kind of assay: binders competing with S1P at S1P3 – cell-based, [33P]S1P, radiometric, dose response, mechanism study for S1P3 agonist project, late-stage follow-up (AID 588327). The note with it: S1P3 membranes, [33P]S1P competition binding, CPM.

Chain of Sphingosine 1-phosphate receptor 3 (Homo sapiens) (Q99500 whole entry, looked up): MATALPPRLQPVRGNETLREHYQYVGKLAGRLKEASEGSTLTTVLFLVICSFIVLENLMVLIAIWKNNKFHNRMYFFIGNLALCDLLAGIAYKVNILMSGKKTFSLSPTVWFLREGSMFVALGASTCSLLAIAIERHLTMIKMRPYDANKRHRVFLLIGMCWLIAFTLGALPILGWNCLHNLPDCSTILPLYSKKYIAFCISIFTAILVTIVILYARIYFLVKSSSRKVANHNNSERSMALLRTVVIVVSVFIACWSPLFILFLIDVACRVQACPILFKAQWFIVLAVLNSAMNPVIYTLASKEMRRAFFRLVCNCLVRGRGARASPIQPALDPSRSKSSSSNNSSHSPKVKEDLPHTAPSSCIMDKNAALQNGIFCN

Take `O=C(c1cc(C2CC2)on1)N(C1CCCCC1)C1CCCCC1`: the IC50 (in general, the concentration at which inhibition is half-maximal) is > 10 µM (inactive).
